# “Also recorded” adds a separate entry of the source. Like-named read-outs stand apart in the source and are kept apart here.
# Key:
# [1] = test system: EGFR and ERK phosphorylation in PC9GR, HCC827 T790M and HCC4006 T790M cells; assay: Western blotting of signaling changes after 4 h drug treatment; assay type: cell-based, human
# Protocol: Signaling changes were evaluated by western blotting after 4 h treatment. […] In (E and G), equal protein loading was confirmed by β-actin evaluation.
# Immunoprecipitation and protein expression analysis
# Whole cell lysates were prepared using ice-cold TNN-HS buffer (50 mM HEPES, pH 8.0, 150
# protease inhibitor cocktail). Total cellular proteins were quantified using the Bio-Rad protein
# assay. For immunoprecipitation, 600 μg of total protein was incubated with 6 μL of mouse
# Biotechnology (Santa Cruz, CA) as the control overnight at 4°C with rotation and then incubated
# with protein G-agarose beads (Roche, Indianapolis, IN) for 3 hours at 4°C. Beads were washed
# five times with TNN-HS buffer, and immunoprecipitated proteins were eluted from beads with
# 30 μL of 2X SDS-PAGE sample buffer from Bio-Rad (Hercules, CA) at 95°C for 5 minutes.
# pThr202/Tyr204-p44/42 MAPK, AKT, pSer473-AKT, and tSRC from Cell Signaling; GRB2,
# [2] = biological target: proteins in total cell lysates of PC9 cells (Homo sapiens, UniProt P00533, DEL746-750); assay: Midostaurin affinity chromatography (drug pulldown) with LC-MS/MS, PC9 lysate; assay type: binding
# Protocol: (§1) LC-MS/MS analysis was performed in duplicate on a LTQ-Orbitrap MS (Thermo Fisher).
# (§2) RNA isolated from PC9 and PC9GR cells were infected with either ARHG5 shRNA or scrambled shRNA and cDNA transcription using RNeasy Mini kit and QuantiTect Reverse Transcription kit from Qiagen (Valencia, CA). Human ARHG5 probe and human 18s rRNA endogenous control were purchased from Applied Biosystems (Foster City, CA). Quantitative real-time PCR reactions were run in triplicate on MicroAmp® Optical 96-well reaction plates with barcode using the 7900HT Fast real-time PCR system, and data were analyzed with 2.3 SDS software and normalized by 18s endogenous control. […]
# (§3) aminomethylbenzoic acid in the presence of HATU and diisopropylethylamine and subsequent […]
# (§4) on NHS-activated Sepharose 4 Fast Flow resin (GE Healthcare Bio-Sciences AB, Uppsala, […]
# (§5) Affinity chromatography was performed as reported previously with total cell lysates of PC9 and PC9GR cells containing each 5.5 mg of protein.
# (§6) Eluates were loaded on a SDS-PAGE gel, briefly run into the gel, and excised as a single piece before in-gel trypsin digestion and sample processing, which was done as described (Rix et al, LC-MS/MS analysis was performed in duplicate on a LTQ-Orbitrap MS (Thermo Fisher). […]
# (§7) searching with the Mascot (Matrix Science) and Sequest (Thermo Fisher) search engines.
# (§8) Kinase inhibition analysis […]
# EGFR L858R = biological target: T1, EGFR L858R (Homo sapiens, UniProt P00533, L858R); assay: In vitro kinase inhibition assay (Millipore KinaseProfiler); assay type: biochemical; conditions: activating point mutation L858R; 0.0001 to 1 μM vs DMSO
# T1 construct: purchased Merck Millipore (KinaseProfiler service)
# Protocol: (§9) In vitro kinase inhibition assays were performed on the Millipore KinaseProfiler™ platform.
# (§10) In vitro kinase assays were conducted using Merck Millipore's KinaseProfiler service according to the protocols detailed at http://www.millipore.com/techpublications/tech1/pf3036.
# (§11) Human Phospho-kinase array assay
# (§12) PC9 and PC9GR cells were infected with lentivirus expressing shRNA against ARHG5 or scrambled shRNA as control for 48 hours. The relative levels of phosphorylation of 46 kinase phosphorylation sites determination was performed using Human Phospho-Kinase Array Kit (R&D Systems, Minneapolis, MN). Briefly, two-hundred micrograms of total cell lysate protein were incubated with Phospho-Kinase array membranes overnight at 4 C. Detection of proteins was accomplished using the Detection Antibody Cocktail and enhanced […]
# EGFR wild type = EGFR wild type (Homo sapiens, UniProt P00533); assay: as above; assay type: biochemical; conditions: wild-type allele; 0.0001 to 1 μM vs DMSO
# Protocol: as §9, §10, §11, §12
# [3] = test system: proteins in total cell lysates of PC9GR cells; assay: Midostaurin affinity chromatography (drug pulldown) with LC-MS/MS, PC9GR lysate; assay type: binding, human; conditions: PC9 and PC9GR lysates
# Protocol: as §1, §2, §3, §4, §5, §6, §7, §8
# [4] = biological target: T2, proteins in total cell lysates of PC9GR cells (Homo sapiens, UniProt P00533, DEL746-750/T790M); assay: as above; assay type: binding; conditions: PC9GR lysate, E746-A750+T790M EGFR
# T2 construct: endogenous in cells; host or cells: PC9GR
# Protocol: as §1, §2, §3, §4, §5, §6, §7, §8
# [5] = test system: patients with leukemia and lung cancer; conditions: cited from earlier work
# HCC827ER cells = test system: HCC827ER cells
# Protocol: (§13) The ON-TARGET plus Smart pool custom siRNA library included siRNA pools containing four different siRNAs. This custom library and the ON-TARGET plus Non-Targeting Pool, non-targeting siRNA #4, and GAPD control siRNA pool were purchased from Thermo Scientific (Dharmacon). siRNA was delivered in triplicate to each well using a Precision^TM microplate liquid handler (BioTek). Plates were incubated for 5 days for cell viability assay and for 48 h for the pERK and pAKT in-cell western analyses. […] Viability and signaling changes were determined for each target gene after normalization on ON-TARGET plus Non-Targeting pool control siRNA. […]
# (§14) The cell viability assay (CellTiter-Glo) was conducted according to the recommendations for the CellTiter-Glo Luminescent Cell Viability Assay from Promega (Madison, WI). Cells were plated […]
# (§15) and either transfected with siRNA or infected with […] of lentiviruses plus 6 µg/mL polybrene (Sigma) for 5 days. Cell-Titer Glo reagent was added to each well, and luminescence was recorded using Victor plate reader from PerkinElmer (Walthom, MA). […]
# PC9GR cells = test system: PC9GR cells
# Protocol: as §13, §14, §15
# PC9 cells = test system: PC9 cells
# Protocol: as §13, §14, §15
# HCC4006ER cells = test system: HCC4006ER cells
# Protocol: as §13, §14, §15
# HCC827 cells = test system: HCC827 cells
# Protocol: as §13, §14, §15
# HCC4006 cells = test system: HCC4006 cells
# Protocol: as §13, §14, §15
compound,measurement,setting,value
"C#Cc1cccc(Nc2ncnc3cc(OCCOC)c(OCCOC)cc23)c1 [Erlotinib, erlotinib]",effects on EGFR and downstream ERK phosphorylation,[1],modest effects
"CO[C@@H]1[C@H](N(C)C(=O)c2ccccc2)C[C@H]2O[C@]1(C)n1c3ccccc3c3c4c(c5c6ccccc6n2c5c31)C(=O)NC4 [Midostaurin, midostaurin]",EGFR binding to immobilized midostaurin,[2],no EGFR associated with midostaurin
same,effect on EGFR kinase activity,EGFR L858R,no substantial effect
same,effect on EGFR kinase activity,EGFR wild type,no substantial effect
same,protein kinases observed in total in midostaurin pulldown,[3],71
same,EGFR binding to immobilized midostaurin,[4],EGFR bound to midostaurin
same,effects on EGFR and downstream ERK phosphorylation,"[1]; western blotting after 4 h, three T790M EGFR cell lines",modest effects
same,tolerability,"[5]; patients with leukemia and lung cancer, ref Monnerat et al, 2004, Fischer et al, 2010",well tolerated
TITIN,HCC827ER_Viability Viability %,HCC827ER cells,73.41%
same,PC9GR_Viability Viability %,PC9GR cells,62.56%
same,PC9_Viability Viability %,PC9 cells,69.56%
same,HCC4006ER_Viability Viability %,HCC4006ER cells,71.94%
same,HCC827_Viability Viability %,HCC827 cells,67.29%
same,HCC4006_Viability Viability %,HCC4006 cells,63.88%
"C[C@]12O[C@H](C[C@]1(O)CO)n1c3ccccc3c3c4c(c5c6ccccc6n2c5c31)CNC4=O [CEP-701, lestaurtinib]",effects on EGFR and downstream ERK phosphorylation,[1],little to modest effects; also recorded: reductions in ERK phosphorylation at concentrations below those necessary for inhibition of EGFR phosphorylation
same,tolerability,"[5]; leukemia, ref Marshall et al, 2005",good tolerability
